Here are results for 18 molecules from ChEMBL document CHEMBL4393733 (Bioorg Med Chem, 2019).

For experiment [1], the target named is Carbonic anhydrase 2 (Homo sapiens, UniProt P00918). The experiment can be described thus: Inhibition of human recombinant N-HA-tagged carbonic anhydrase 2 expressed in HEK293T cells using p-nitrophenyl acetate as substrate measured after 30 mins by colorimetric analysis.
Experiment [2] in a line: Inhibition of human recombinant N-His-tagged carbonic anhydrase 11 expressed in HEK293T cells using p-nitrophenyl acetate as substrate measured after 30 mins by colorimetric analysis.

What is called IC50 is the point on the concentration scale where inhibition reaches its midpoint. In the case of `Cc1ccc(S(=O)(=O)Oc2ccc(-c3ccc4sccc4c3)cc2)cc1`, the IC50 in experiment [1] was 3.3 µM; in experiment [2] it was 1.77 µM.

On to `CN(C)S(=O)(=O)Oc1ccc(-c2ccc3occc3c2)cc1`, for which the IC50 is 1.23 µM in experiment [1] and 1.71 µM in experiment [2].

`CNS(=O)(=O)Oc1ccc(-c2ccc3occc3c2)cc1`: the 50% inhibitory concentration (IC50) in experiment [1] turned out to be 1.04 µM; in experiment [2], 0.64 µM.

For `CS(=O)(=O)Oc1ccc(-c2ccc3sccc3c2)cc1`, the values for the IC50 in experiment [1] and in experiment [2] were 1.5 µM and 1.01 µM, respectively.

Take `Cc1ccc(S(=O)(=O)Oc2ccc(-c3ccc4occc4c3)cc2)cc1`: the IC50 was 0.5 µM in experiment [1] and 0.28 µM in experiment [2].

With `O=S(=O)(Oc1ccc(-c2ccc3sccc3c2)cc1)c1ccc(F)cc1`, the IC50 in experiment [1] came to 2.1 µM; in experiment [2], 3.1 µM.

Take `CCS(=O)(=O)Oc1ccc(-c2ccc3sccc3c2)cc1`: the IC50 in experiment [1] worked out at 1.3 µM; in experiment [2], 0.14 µM.

As to `CCCS(=O)(=O)Oc1ccc(-c2ccc3occc3c2)cc1`, the IC50 in experiment [1] was found to be 1.62 µM; in experiment [2], 0.69 µM.

For the molecule `O=S(=O)(Oc1ccc(-c2ccc3sccc3c2)cc1)c1ccccc1`, the figures for the 50% inhibitory concentration (IC50) in experiment [1] and in experiment [2] were 1.49 µM and 2.7 µM, respectively.

As for `CN(C)S(=O)(=O)Oc1ccc(-c2ccc3sccc3c2)cc1`, the figures for the IC50 in experiment [1] and in experiment [2] were 5.82 µM and 2.84 µM, respectively.

Take `O=S(=O)(Oc1ccc(-c2ccc3occc3c2)cc1)c1ccc(F)cc1`: the IC50 in experiment [1] was 0.14 µM; in experiment [2], 1.6 µM.

`CCS(=O)(=O)Oc1ccc(-c2ccc3occc3c2)cc1`: the IC50 came to 1.6 µM in experiment [1] and 0.13 µM in experiment [2].

With `NS(=O)(=O)Oc1ccc(-c2ccc3occc3c2)cc1`, the IC50 was 2.6 µM in experiment [1] and 1.11 µM in experiment [2].

For `CNS(=O)(=O)Oc1ccc(-c2ccc3sccc3c2)cc1`, the IC50 in experiment [1] worked out at 1.21 µM; in experiment [2], 0.52 µM.

In the case of `CS(=O)(=O)Oc1ccc(-c2ccc3occc3c2)cc1`, the IC50 in experiment [1] stood at 2.13 µM; in experiment [2], 2.17 µM.

As to `CCCS(=O)(=O)Oc1ccc(-c2ccc3sccc3c2)cc1`, the values for the IC50 in experiment [1] and in experiment [2] were 0.31 µM and 7.55 µM, respectively.

Consider `O=S(=O)(Oc1ccc(-c2ccc3occc3c2)cc1)c1ccccc1`, for which the IC50 stood at 0.41 µM in experiment [1] and 0.85 µM in experiment [2].

`NS(=O)(=O)Oc1ccc(-c2ccc3sccc3c2)cc1`: the IC50 was found to be 1.32 µM in experiment [1] and 0.24 µM in experiment [2].
